Patent US8828942B2, “Means for treating synucleinopathies” (Affiris AG, priority 2009, dated 2014)
“Also recorded” adds a separate entry of the source.

Columns and labels:
[1] = test system: monoclonal antibody 12-9-9; assay: In vitro binding assay (ELISA) with monoclonal antibody 12-9-9; set-up: species or system mouse; key to Binding: 0: no binding to 12-9-9 detectable in ELISA; 1: weak binding: binding of mimotope weaker compared to the minimal original sequence p5436; 2: strong binding: binding of mimotope similar to the minimal original sequence p5436; details: for Binding: binding capacity to 12-9-9 in ELISA, peptide-BSA coated (1 μM), compared with p5436; for detection/binding by monoclonal antibody 12-9-9 in ELISA: result in words
Text: A monoclonal antibody derived from the fusion “AFFiRiS 6”: Balb/c mice (Charles River) were immunized with original alpha-synuclein epitope LGKNEEGAPQ-C (SEQ ID NO:3) coupled to BTG (bovine thyroglobuline) and CFA (complete Freund's adjuvant; first injection) as well as IFA (incomplete Freund's adjuvant; 3 booster injections) as adjuvant. LGKNEEGAPQ-peptide-specific (SEQ ID NO: 203) antibody-producing hybridomas are detected by ELISA (LGKNEEGAPQC-peptide-coated (SEQ ID NO: 3)ELISA plates). Human alpha-synuclein (recombinant protein, p4446) is used as positive control peptide: hybridomas recognizing the recombinant protein immobilized on ELISA plates are included because they are binding both peptide and full length alpha-synuclein specifically. […] The Hybridoma clone (12-9-9; IgG1, kappa) was analysed for specific detection of the natural human alpha-synuclein epitope LGKNEEGAPQ. (SEQ ID NO: 203). 12-9-9 recognizes the injected epitope as well as full length alpha-synuclein protein (recombinant protein; obtained from rPeptide, Bogart, Ga., USA) in ELISA (see FIG. 2). […] Thus the minimal required epitope for binding has been defined as KNEEGAP (SEQ ID NO: 139).
Peptides derived from Phage Display as well as N-terminally truncated variants thereof were coupled to BSA and bound to ELISA plates (1 μM) and subsequently incubated with the monoclonal antibody that was used for the screening procedure to analyse binding capacity of identified peptides (see FIG. 4).

[2] = test system: monoclonal antibody 12-9-9; assay: In vitro inhibition assay (ELISA); type: binding, mouse; set-up: key: 0: no competition of 12-9-9 detectable in ELISA; 1: weak competition: competition of mimotope weaker compared to the minimal original sequence p5436; 2: strong competition: competition of mimotope similar to the minimal original sequence p5436; details: competition capacity in ELISA, peptide 400 μg/ml to 3 μg/ml, plates coated with p5436 and p4446
Experimental: Different amounts of peptides (concentrations ranging from 400 μg/ml to 3 μg/ml (serial dilutions), derived from Phage Display were incubated with the monoclonal antibody that was used for the screening procedure. Peptides diminishing subsequent binding of the antibody to the original human alpha-synuclein epitope (p5436) and the human alpha-synuclein protein (p4446) coated on ELISA plates were considered as inhibiting in this assay.

[3] = In vivo testing of mimotopes: serum titer against injected peptide (ELISA); details: mice, 30 μg peptide coupled to KLH, alum, s.c.; titer by ELISA as OD halfmax
Experimental: (§1) Inhibiting as well as non-inhibiting peptides were coupled to KLH and injected into mice (wildtype C57/B16 or BalbC mice; subcutaneous injection into the flank) together with an appropriate adjuvant (aluminium hydroxide). Animals were vaccinated 3 times in biweekly intervals and sera were taken biweekly as well. Titers to injected peptides as well as to an irrelevant peptide were determined with every serum. Titers against the recombinant human alpha-synuclein protein and recombinant human beta-synuclein were determined starting with Serum 2 respectively. In general sera were analysed by reaction against peptides coupled to Bovine Serum Albumin (BSA) and recombinant full length proteins which were immobilised on ELISA plates. Titers were determined using anti mouse IgG specific antibodies. For examples of immunogenicity against injected peptide and alpha-synuclein see Table 5 and Table 6.
(§2) Female C57/B16 mice or BalbC, 5-6 mice per group, were subcutaneously immunized with 30 μg peptide coupled to KLH. Control groups were injected with PBS or the original epitope. As adjuvant alum was used. The peptides administered were all able to bind to monoclonal antibodies specifically binding aa100-109 of human alpha-synuclein although some of the peptides did inhibit the binding of the original epitope to its parental antibody in vitro only weakly (in an in vitro inhibition assay). The in vitro ELISA assay to determine the antibody titer was performed with sera of single mice (see Tab. 5) after each vaccination in a two week interval. The wells of the ELISA plate were coated with mimotope-BSA conjugates. The positive control was performed by reaction of the parental antibody with the respective mimotope-BSA conjugate. The detection was performed with anti-mouse IgG. Additionally, recombinant proteins were immobilised on ELISA plates and sera reacted accordingly. For all mimotopes tested in C57/B16 mice or BalbC, antibodies reacting to the individual injected peptide could be detected after repeated vaccination. Although not all mice induced higher titer against alpha-synuclein (see tab. 5 for examples).

[4] = test system: recombinant human alpha-synuclein protein; assay: In vivo testing of mimotopes: serum titer against alpha-synuclein (ELISA); details: mice immunized with peptide-KLH, alum, OD halfmax
Experimental: as §1, §2

Binding [1] | detection/binding by monoclonal antibody 12-9-9 in ELISA [1] | Sequence | Competition [2] | Titer in animals OD halfmax injected pep. [3] | class of immunogenicity: a Syn [4]
2 | detected similarly | KNAEGAPC [p5439, mimotope] | 1 | 8000 | 1 (peptides inducing an immune response with OD halfmax between 1000 and 51.)
2 |  | KNDEGAPC [p5445, mimotope] | 2 | 26000 | 2 (peptides inducing an immune response with OD halfmax higher than 1000.)
2 | retained full binding capacities | LGKNEEGAPC [p5402, reference compound] | 2 | 20000 | 2 (peptides inducing an immune response with OD halfmax higher than 1000.)
2 |  | RNEEGAPC [p5443, mimotope] | 2 | 9000 | 1 (peptides inducing an immune response with OD halfmax between 1000 and 51.)

Sequence | Binding [1] | detection/binding by monoclonal antibody 12-9-9 in ELISA [1] | Competition [2] | Titer in animals OD halfmax injected pep. [3] | class of immunogenicity: a Syn [4]
KNEEGAPC [p5436, reference compound] | 2 | detected similarly; also recorded: retained full binding capacities | 2 | 10000 | 2 (peptides inducing an immune response with OD halfmax higher than 1000.)
